Reference: patent US20240156744A1, “METHOD OF APPLYING ELECTRICAL IMPULSES FOR THE PURPOSE OF LOADING VARIOUS MOLECULES INTO PLANT-DERIVED NANOVESICLES” (EXO LAB ITALIA, S.r.l., priority 2021, published 2024)

Legend:
[1] = system: human melanoma cells; test: Transfer of AO to tumour cells, spectrofluorimeter; assay type: cell-based; details: AO 0.1 pg/mL; cells cultured in unbuffered medium
Excerpt: Acridine orange was not activated with blue light.

[2] = system: drug-resistant CEM/VBL100 cells; test: Cytotoxicity by Trypan blue assay on CEM/VBL100 cells; assay type: cell-based; details: CEM/VBL100, 24 h
Description: Increasing concentrations of VBL alone and loaded into the plant nanovesicles were used to assess the cytotoxic effect on CEM and CEM/VBL100 leukaemic cells by Trypan blue assay after 48 and 24 h of incubation, respectively. A) The cytotoxic effect on CEM cells starts to be evident at a concentration of 1000 ng/mL and is enhanced in VBL loaded in the plant nanovesicles (2.6-fold higher than in VBL alone).

Row | Structure (SMILES) | percentage of AO transferred to tumour cells [1] | mortality at 0.0001 µg/mL [2] [%]
1 | CN(C)c1ccc2cc3ccc(N(C)C)cc3nc2c1 [AO, Acridine Orange] | significantly reduced | 
2 | CC[C@]1(O)C[C@@H]2CN(CCc3c([nH]c4ccccc34)[C@@](C(=O)OC)(c3cc4c(cc3OC)N(C)[C@H]3[C@@](O)(C(=O)OC)[C@H](OC(C)=O)[C@]5(CC)C=CCN6CC[C@]43[C@@H]65)C2)C1 [VBL, vinblastine] |  | 0.7
